Values after ≈ are worked out from the molar mass of the structure shown. Read-outs that look alike come from different tables or passages of the source.

These results are taken from article PMC10017027, “Design and Synthesis of Novel HIV-1 NNRTIs with Bicyclic Cores and with Improved Physicochemical Properties” (Journal of Medicinal Chemistry, 2023).

For one series, the system named is HIV-1 HXB2 K103N variant. As to the kind of experiment: MT-4 antiviral cytopathic effect assay, HXB2-K103N. It is filed as cell-based.
Series [1] can be described thus: Predicted clearance in human liver microsomes. Format: in vitro ADME. As to conditions: pH 7.4, 1 μM compound, read-out: HLM CLint, pred (converted). As for the experimental part: Next, microsome stability was profiled in purified human liver microsomes (HLM).
Metabolic stability of compounds was assessed using HLM (Corning cat. 457117).[52] In this assay, 10 nL compounds at a concentration of 1 mM in 100% DMSO are dispensed into 384-well polypropylene plates using the Echo 550 acoustic liquid dispenser (Labcyte). Each plate contains 384 wells with a single test compound in each well.
A solution of HLM at 2 mg/mL in 100 mM K2HPO4/KH2PO4 pH 7.4 with 0.0225 mg/mL Alamethicin from Trichoderma viride (Sigma-Aldrich cat. A4665-10MG) was incubated on ice for 15 min. 5 μL of this solution was added to individual wells following 15 min incubation at room temperature; and supplemented with 5 μL NADPH Regenerating Solution of cofactors (Corning Gentest UGT Reaction Mix solutions A and B, cat. 451200 and 451220) containing 100 mM K2HPO4/KH2PO4 pH 7.4, 2.6 mM NADP^+, 6.6 mM glucose-6-phosphate, 6.6 mM MgCl2, 0.8 U/mL glucose-6-phosphate dehydrogenase, 0.1 mM sodium citrate, and 6.8 mM uridine diphosphate-glucuronic acid. The final concentration of analyte compounds at the beginning of the reactions was 1 μM. The reactions were incubated at 37 °C, and time points of 0, 5, 15, 30, 40, 50, 60, and 70 min were collected for further analysis. Background data were collected using reactions without analyte compounds.
Upon collection of the reaction time points, samples were quenched at the set time points with 30 μL of a solution of 72% acetonitrile, 8% methanol, 0.1% formic acid, 19.9% water, and labetalol as an internal standard (IS) at a concentration of 650 nM. Reaction plates were span in a centrifuge at a speed of 4000 rcf for 30 min and 4 °C, following a dilution of the 10 μL quenched reaction into 40 μL de-ionized water, yielding assay plates.
Samples were analyzed by a solid-phase extraction coupled with a quadrupole time-of-flight mass spectrometer, using an Agilent QToF 6530 RapidFire 360 system with C4 type A solid state cartridges. Analysis was performed in either positive or negative ionization modes. Mobile phases contained 0.1% formic acid in water for loading analytes onto solid state extraction cartridges, and 0.1% formic acid in acetonitrile for elution into the mass spectrometer in positive ionization mode, or 0.1% acetic acid in water for loading and 0.1% acetic acid in acetonitrile for extraction in negative ionization mode. Peak-area ratios of integrated counts for individual compounds to IS were plotted as a semi-logarithmic chart of log versus time. Initial, linear portion of decay was fitted to a linear regression equation to derive the half-time of a compound decay.
Pharmacological parameters for an analyte compound metabolism were calculated using the equations described in Table S2.
Table S2. Pharmacological parameters for an analyte compound metabolism were
calculated using the following equations:
Intrinsic Clearance (in Cl = ln 2
int, in vitro T1/2 ∗ Conc
Intrinsic Clearance Cl = Clint, in vitro ∗ Liver Mass ∗ Yield
Predicted Hepatic Cl = Clint ∗ QH
QH (Hepatic Blood Flow) = 1.3 L/hr/kg

For another series, the system named is HIV-1 HXB2. As to the kind of experiment: MT-4 antiviral cytopathic effect assay, HXB2 wild-type virus. Format: cell-based. As to conditions: Human immunodeficiency virus 1, MT4; HIV-1 HXB2 wild-type, MT-4 cells; read-out: EC50 HXB2. As for the experimental part:
The prepared compounds were tested for their anti-HIV-1 activity (Table 1). A viral cytopathic effect assay in MT-4 cells with HIV-1 IIIB virus was used to determine compound potency (EC50, 50% cell viability) in protecting virus induced cell killing. Compound cytotoxicity was assessed in MT-4 cells in the absence of virus (CC50, 50% cytotoxicity).
Compounds were tested in a high-throughput 384-well assay format for their ability to inhibit the virus replication-induced cytopathic effect in MT-4 cell cultures acutely infected with HIV-1 (IIIB strain), HXB2, HXB2-K103N, and HXB2-Y181C. Compounds were serially diluted (1:3) in DMSO on 384-well polypropylene plates and further diluted 200-fold into complete RPMI media (10% FBS, 1% P/S) using Biotek Micro Flow and an Agilent ECHO acoustic dispenser. Each plate contained up to eight test compounds, with negative (no drug control) and 5 μM AZT positive controls. MT-4 cells were further diluted in complete RPMI media and added to each plate using a Micro-Flo dispenser. After five days of incubation in a humidified and temperature-controlled incubator (37 °C), Cell Titer Glo (Promega) was added to the assay plates to quantify the amount of […]. EC50 and CC50 values were defined as the compound concentration that causes a 50% decrease in luminescence signal and were calculated using a sigmoidal dose-response model to generate curve fits.
(In general: Protection from cytopathic effect is a common read-out in antiviral testing.)

A further series can be described thus: in vitro. It is filed as cell-based. The following applies: human.
Series [2] can be described thus: Solubility assessment, shake-flask method. As to conditions: for solubility: shake-flask. Format: physicochemical. On the procedure: Compound solubility was measured at Analiza (Cleveland, OH) by the standard shake-flask method at pH 1.2 and 7.4 and quantitated by HPLC-UV.
In another series the test system is HIV-1 (IIIB strain). As to the kind of experiment: MT-4 antiviral cytopathic effect assay, HIV-1 IIIB. Format: cell-based.
Where [3] appears, read: preliminary biological data, in words.

In the case of `Cc1cc(C#N)cc(C)c1N1CC(=O)Nc2cnc(Nc3ccc(C#N)cc3)nc21` [Compound 3, 4-(2-((4-Cyanophenyl)amino)-6-oxo-6,7-dihydropteridin-8(5H)-yl)-3,5-dimethylbenzonitrile], the concentration for a half-maximal effect (EC50) (commonly the midpoint of the concentration-response curve) was 45.2 nM in the series with HIV-1 HXB2 K103N variant (Human immunodeficiency virus 1, HXB2, read-out: EC50 K103N); 8.1 nM with HIV-1 HXB2; 8.1 to 8.6 nM with HIV-1 (IIIB strain) (Human immunodeficiency virus 1, HXB2 / IIIB, range over HIV-1 IIIB and HXB2, read-out: EC50 against both wild-type viruses); 8.6 nM with HIV-1 (IIIB strain) (Human immunodeficiency virus 1, IIIB, MT4, protects 50% of MT-4 cells against HIV-1-induced cell killing, HIV-1 IIIB, WT, read-out: EC50 MT4). For the same compound, the “K103N (FC)” value with HIV-1 HXB2 K103N variant (fold change: ratio of potency against HXB2 K103N and parental HXB2) is listed as 5.6; in the series on HIV-1 HXB2 K103N variant (supplement CSV, fold change vs HXB2) it was 5.6. Besides, the “potency against K103N mutated strain” value in the series with HIV-1 HXB2 K103N variant (setting [3]) is “high potency”. The CLint scaled at 1.167 h, 1 µM in series [1] was 18.3 mL/min/kg. For the same compound, the CC50 (in general, the concentration that lowers cell viability or growth by half) at 5 days in “in vitro” was greater than 50000 nM. Moreover, the solubility thermodynamic in series [2] (HCl, pH 1.2, supplement CSV, read-out: HCl sol) is greater than 100 µM. For the same compound, the solubility – broadly, the concentration that dissolves in the medium under given conditions – in series [2] (HCl, pH 1.2, read-out: solubility HCl) was greater than 100 µM; in series [2] (phosphate-buffered saline, pH 7.4, read-out: solubility PBS), 2.3 µM (≈ 0.909 µg/mL). Further, the aqueous solubility entry in series [2] (preliminary data, in words) was “significantly improved”. Moreover, the PBS sol in series [2] (supplement CSV) was determined as 2.3 µM. For the same compound, in the series on HIV-1 (IIIB strain) (setting [3]), the “activity against the WT virus” value is “low nanomolar activity”.
